Data reported in patent publication EP1247803A2, “Indolinone compounds suitable for modulation of protein kinases” (Sugen, Inc., priority 1996, dated 1998).

Key:
[1] = target: PDGF-R (Homo sapiens, UniProt P09619); test: PDGF-R ELISA; assay type: cell-based
Excerpt: A PDGF-R ELISA is described in International Patent Publication No. WO 96/40116, published December 19, 1996 by Tang et al.

[2] = target: T1, FLK-1 receptor (Mus musculus, UniProt P35918); test: FLK-1 ELISA (kinase activity of the FLK-1 receptor in FLK-1/NIH3T3 cells, VEGF stimulated); assay type: cell-based
T1 construct: expressed in transfected cells; host or cells: NIH3T3 C7#3
T1 sequence (P35918 20-1345): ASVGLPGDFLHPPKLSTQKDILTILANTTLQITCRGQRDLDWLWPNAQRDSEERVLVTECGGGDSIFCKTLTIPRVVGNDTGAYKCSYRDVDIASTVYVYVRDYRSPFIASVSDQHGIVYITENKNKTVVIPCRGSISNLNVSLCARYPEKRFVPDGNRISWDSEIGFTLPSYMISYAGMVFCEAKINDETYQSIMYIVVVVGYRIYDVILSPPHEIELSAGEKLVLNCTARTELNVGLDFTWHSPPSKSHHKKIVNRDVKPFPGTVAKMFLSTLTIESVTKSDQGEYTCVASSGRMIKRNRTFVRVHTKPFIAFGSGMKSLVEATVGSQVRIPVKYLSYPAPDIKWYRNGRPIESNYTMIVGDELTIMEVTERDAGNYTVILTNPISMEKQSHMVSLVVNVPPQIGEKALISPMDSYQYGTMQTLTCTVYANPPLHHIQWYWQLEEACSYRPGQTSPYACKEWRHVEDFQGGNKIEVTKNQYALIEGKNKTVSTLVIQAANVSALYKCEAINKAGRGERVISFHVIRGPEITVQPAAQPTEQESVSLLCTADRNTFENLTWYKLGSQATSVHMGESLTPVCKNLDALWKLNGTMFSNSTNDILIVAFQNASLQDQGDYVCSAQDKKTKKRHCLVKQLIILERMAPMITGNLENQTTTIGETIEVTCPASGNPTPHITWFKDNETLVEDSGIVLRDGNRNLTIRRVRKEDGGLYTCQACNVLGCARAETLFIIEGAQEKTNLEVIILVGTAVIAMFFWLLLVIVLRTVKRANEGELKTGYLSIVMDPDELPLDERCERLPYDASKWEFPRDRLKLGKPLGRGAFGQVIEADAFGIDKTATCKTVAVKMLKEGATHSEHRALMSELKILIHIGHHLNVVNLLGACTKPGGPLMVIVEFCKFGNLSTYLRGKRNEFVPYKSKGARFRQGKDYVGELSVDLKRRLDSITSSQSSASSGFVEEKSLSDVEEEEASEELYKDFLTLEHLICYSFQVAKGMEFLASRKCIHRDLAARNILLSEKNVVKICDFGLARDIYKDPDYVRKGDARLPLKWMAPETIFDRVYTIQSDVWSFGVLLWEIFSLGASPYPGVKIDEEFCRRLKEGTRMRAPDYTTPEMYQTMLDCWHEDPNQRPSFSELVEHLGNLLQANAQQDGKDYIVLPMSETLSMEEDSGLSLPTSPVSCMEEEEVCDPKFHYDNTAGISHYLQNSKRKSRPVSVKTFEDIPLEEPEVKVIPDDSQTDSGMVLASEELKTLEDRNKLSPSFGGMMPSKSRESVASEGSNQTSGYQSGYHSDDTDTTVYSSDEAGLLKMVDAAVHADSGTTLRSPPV
Method in brief: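 FLK-1-expressing NIH3T3 C7#3 cells, starved overnight in 0.1% FBS medium, were treated with compounds at a 1:200 final dilution (0.5% DMSO) for 2 h at 37 °C, with VEGF stimulation. FLK-1 kinase activity was read by ELISA on anti-rabbit IgG plates using affinity-purified anti-FLK-1 antiserum.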

[3] = test system: MET; test: MET biochemical kinase assay; parameters: species or system human; concentration or dose not given beside the values
Method in brief: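 In this format, tyrosine phosphorylation of plate-captured human MET is followed in vitro after compound addition in ATP/divalent-cation buffer, detected by anti-phosphotyrosine-HRP with TMB substrate.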

Sequence of PDGF-R (P09619 33-1106, species assumed): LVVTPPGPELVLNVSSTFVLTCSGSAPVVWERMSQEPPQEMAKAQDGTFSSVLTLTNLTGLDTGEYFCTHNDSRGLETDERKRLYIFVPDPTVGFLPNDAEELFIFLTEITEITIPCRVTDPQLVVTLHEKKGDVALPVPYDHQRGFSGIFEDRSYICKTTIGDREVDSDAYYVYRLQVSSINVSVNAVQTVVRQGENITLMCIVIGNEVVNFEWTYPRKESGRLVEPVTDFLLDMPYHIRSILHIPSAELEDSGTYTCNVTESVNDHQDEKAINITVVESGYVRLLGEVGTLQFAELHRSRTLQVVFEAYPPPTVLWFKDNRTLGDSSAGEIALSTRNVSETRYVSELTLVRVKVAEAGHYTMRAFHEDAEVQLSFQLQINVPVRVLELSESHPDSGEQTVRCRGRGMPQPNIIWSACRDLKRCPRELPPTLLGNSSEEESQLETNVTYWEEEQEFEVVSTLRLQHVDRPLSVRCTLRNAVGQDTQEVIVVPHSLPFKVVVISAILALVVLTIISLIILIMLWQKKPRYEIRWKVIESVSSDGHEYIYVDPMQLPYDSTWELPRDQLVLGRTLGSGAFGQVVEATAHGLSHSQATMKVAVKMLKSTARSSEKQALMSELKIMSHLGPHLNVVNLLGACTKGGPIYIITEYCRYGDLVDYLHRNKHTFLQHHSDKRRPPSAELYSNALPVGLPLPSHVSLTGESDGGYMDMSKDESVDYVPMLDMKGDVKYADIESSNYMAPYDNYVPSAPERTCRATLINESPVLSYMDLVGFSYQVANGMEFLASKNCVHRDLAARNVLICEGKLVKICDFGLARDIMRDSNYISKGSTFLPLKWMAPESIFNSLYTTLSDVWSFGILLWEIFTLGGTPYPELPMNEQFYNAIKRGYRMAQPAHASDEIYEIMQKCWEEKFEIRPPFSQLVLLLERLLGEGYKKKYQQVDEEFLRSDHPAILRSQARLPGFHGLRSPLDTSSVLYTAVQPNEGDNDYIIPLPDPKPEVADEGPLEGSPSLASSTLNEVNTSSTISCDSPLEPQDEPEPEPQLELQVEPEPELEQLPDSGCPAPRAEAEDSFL

SMILES	PDGF Kinase %Inhibition [1]	Fik Kinase %Inhibition [2]	Met Kinase % Inhibition [3]
CNS(=O)(=O)c1ccc2c(c1)C(=Cc1ccc(OC)c(OC)c1OC)C(=O)N2 [10730/D02]	24.3%	12.4%	34.7%
COc1cc(OC)c(OC)cc1C=C1C(=O)Nc2ccc(I)cc21 [10730/B03]	17.3%	-0.5%	78.3%
CNS(=O)(=O)c1ccc2c(c1)C(=Cc1ccc(-c3ccccc3Cl)o1)C(=O)N2 [10730/D07]	5.0%	8.8%	52.5%
CNS(=O)(=O)c1ccc2c(c1)C(=Cc1cc(C)c(C)o1)C(=O)N2 [10730/D11]	-0.7%	7.7%	9.7%
CNS(=O)(=O)c1ccc2c(c1)C(=Cc1cn(C(C)=O)c3ccccc13)C(=O)N2 [10730/D05]	-1.6%	11.9%	38.1%
O=C1Nc2ccc(S(=O)(=O)Nc3ccc(C(F)(F)F)cc3)cc2C1=Cc1ccc(-c2ccccc2Cl)o1 [10730/E07]	30.0%	12.0%	37.1%
CSc1ccc(C=C2C(=O)Nc3ccc(CCCl)cc32)cc1 [10729/G04]	1.6%	12.2%	18.2%
O=C1Nc2ccc(I)cc2C1=Cc1ccco1 [10718/B10]	–	20.1%	83.6%
CC(=O)n1cc(C=C2C(=O)Nc3ccc(S(=O)(=O)N4CCOCC4)cc32)c2ccccc21 [10730/F05]	19.5%	19.6%	23.5%
CC(=O)n1cc(C=C2C(=O)Nc3ccc(I)cc32)c2ccccc21 [10730/B05]	-2.9%	-0.5%	71.1%
O=C1Nc2c(Br)cc(Br)cc2C1=Cc1ccc(-c2ccccc2Cl)o1 [10730/A07]	-23.9%	-18.9%	55.4%
COC1CC(C=C2C(=O)Nc3ccc(S(=O)(=O)Nc4ccc(C(F)(F)F)cc4)cc32)C(OC)O1 (stereo not drawn) [10730/E10]	39.6%	26.0%	63.6%
COC(=O)c1[nH]c(C)c(C=C2C(=O)Nc3ccc(I)cc32)c1C(=O)OC [10718/B07]	–	17.7%	53.7%
COc1cc(C=C2C(=O)Nc3ccc(Br)c(C)c32)cc(OC)c1OC [10730/C04]	15.5%	46.1%	43.2%
Cc1cc(C=C2C(=O)Nc3ccc(Br)c(C)c32)oc1C [10730/C11]	16.4%	-8.0%	66.6%
Cc1c(Br)ccc2c1C(=Cc1ccc3ccccc3c1O)C(=O)N2 [10718/C04]	–	15.3%	93.1%
CCOC(=O)c1c(C)[nH]c(C=C2C(=O)Nc3ccc(Br)c(C)c32)c1C [10718/C02]	–	26.2%	29.6%
Cc1c(O)ccc(C=C2C(=O)Nc3ccc(I)cc32)c1O [10718/B09]	–	-14.7%	52.9%
O=C1Nc2c(Br)cc(Br)cc2C1=Cc1ccc(Br)cc1 [10717/A08]	–	-5.2%	21.7%
COc1cc(Br)c(O)c(C=C2C(=O)Nc3ccc(Br)c(C)c32)c1 [10718/C03]	–	-13.9%	95.7%
O=C1Nc2ccc(I)cc2C1=Cc1ccc([N+](=O)[O-])o1 [10718/B11]	–	4.5%	69.6%
O=C1Nc2ccc(I)cc2C1=Cc1ccc(Cl)c([N+](=O)[O-])c1 [10718/B08]	–	5.4%	63.4%
